Reference: patent US7329686B2, “Substituted thiophene compounds” (AstraZeneca AB, priority 2002, dated 2008)
pIC50: −log10 of the molar value. Counter-ions that a name gives are not always drawn.

Experiments:
Recombinant human iNOS = target: T1, Recombinant human iNOS (Homo sapiens, UniProt P35228); test: Screen 2: recombinant human NO synthase inhibition, L-[3H]citrulline formation; assay type: biochemical; settings: recombinant human iNOS expressed in E. coli; 60 min pre-incubation with NADPH
T1 construct: made in house; host or cells: E. coli (lysate)
Description: Recombinant human NO synthases (iNOS, eNOS & nNOS) were expressed in E. coli and lysates were prepared in Herpes buffer (pH 7.4) containing co-factors (FAD, FMN, H4B), protease inhibitors, lysozyme and the detergent, CHAPS. These preparations were used, at suitable dilution, to assess inhibition of the various isoforms. Inhibition of NOS was determined by measuring the formation of L-[^3H]citrulline from L-[^3H]arginine using an adaptation of the method of Förstermann et al.^9 Enzyme assays were performed in the presence of 3 μM [^3H]arginine, 1 mM NADPH and other co-factors required to support NOS activity (FAD, FMN, H4B, calmodulin, Ca^2+). […] Incubations continued for a further 60 min before the assays were quenched and [^3H]citrulline separated from unreacted substrate by chromatography on Dowex-50W resin in a 96-well format.

[1] = target: T2, human form of induced nitric oxide synthase (Homo sapiens, UniProt P35228); test: Screen 3: nitrite accumulation in cytokine-induced DLD-1 cells (Griess reagent); assay type: cell-based; settings: DLD-1 human colorectal carcinoma cells, nitrite accumulation over 5 hours
T2 construct: Nitric oxide synthase was induced in cells by addition of medium containing human recombinant gamma-IFN; endogenous in cells; host or cells: DLD-1 human colorectal carcinoma cells (ECACC 90102540), induced with IFN-gamma, TNF-alpha, IL-6 and IL-1-beta
Description: The human colorectal carcinoma cell line, DLD-1 (obtained from the European Collection of Animal Cell Culture—cell line number 90102540) was routinely grown in RPMI 1640 supplemented with 10% (v/v) foetal bovine serum, and 2 mM L-glutamine, at 37° C. in 5% CO2. Nitric oxide synthase was induced in cells by addition of medium containing human recombinant gamma-IFN (1000 units/ml), TNF-alpha (200 U/ml), IL-6 (200 U/ml) and IL-1-beta (250 U/ml). After incubation for 18 hours at 37° C., the medium was removed and the cells washed with warm phosphate buffered saline. Cells were incubated for a further 5 hours at 37° C./5% CO2 in RPMI 1640 containing 100 μM L-arginine and 100 μM verapamil-HCl in the presence and absence of test compounds. Nitrite accumulation was determined by mixing an equal volume of culture media with Griess reagent (10 mg/ml sulphanilamide, 1 mg N-(1-naphthyl)ethylenediamine in 1 ml 2.5% (v/v) phosphoric acid). Inhibition in the presence of compounds was calculated relative to the nitrite levels produced by untreated cells. IC50 values were estimated from a semi-log plot of % inhibition versus concentration of compound.

Nitric oxide synthase = target: T3, Nitric oxide synthase (Mus musculus, UniProt P29477); test: Screen 1: nitric oxide synthase inhibition, 3H-L-arginine to 3H-L-citrulline conversion, lysate of induced J774A-1 cells; assay type: biochemical; settings: enzyme from LPS/IFNg-induced murine macrophage cell line J774A-1; 1 hour at room temperature
T3 construct: endogenous in cells; host or cells: J774A-1 murine macrophage cell line, induced with LPS and IFN-gamma; crude lysate
Description: The activity of compounds of formula (I), or a pharmaceutically acceptable salt, enantiomer or racemate thereof, may be screened for nitric oxide synthase inhibiting activity by a procedure based on that of Förstermann et al., Eur. J. Pharm., 1992, 225, 161-165. Nitric oxide synthase converts ^3H-L-arginine into ^3H-L-citrulline which can be separated by cation exchange chromatography and quantified by liquid scintillation counting.
Enzyme is prepared, after induction, from the cultured murine macrophage cell line J774A-1 (obtained from the laboratories of the Imperial Cancer Research Fund). J774A-1 cells are cultured in Dulbeccos Modified Eagles Medium (DMEM) supplemented with 10% foetal bovine serum, 4 mM L-glutamine and antibiotics (100 units/ml penicillin G, […] streptomycin & […] amphotericin B). Cells are routinely grown in […] flasks containing 35 ml medium kept at 37° C. and in a humidified atmosphere containing 5% CO2. […]
Labelled L-citrulline is separated from labelled L-arginine using Dowex AG-50W. […] After allowing the samples to dry the L-citrulline is quantified by scintillation counting.
In a typical experiment basal activity is 300 dpm per 75 μl sample which is increased to 1900 dpm in the reagent controls. […] Compounds are tested at a range of concentrations and from the inhibitions obtained IC50 values are calculated. […]

## Cc1cc(S[C@H](CN)c2ccccc2)c(C#N)s1 [Example 1, 3-[[(1S)-2-Amino 1-phenylethyl]thio]-5-methyl-2-thiophenecarbonitrile oxalate]
Recombinant human iNOS
  pIC50: > 5.00
[1]
  pIC50: > 4.00
Nitric oxide synthase
  pIC50: > 5.00
